Measurements as given in the NIST ThermoML archive (doi:10.1021/je700287u).

Experiment: xn = mol fraction of the nth substance listed
Details: Liquid

CN(CCO)CCO [N-methyldiethanolamine] + O
Details	mass density [kg/m3]
352.84 K, 15989 kPa, x1 = 0.1302	1010.4
352.84 K, 16976 kPa, x1 = 0.1302	1010.8
352.84 K, 17977 kPa, x1 = 0.1302	1011.2
352.84 K, 18979 kPa, x1 = 0.1302	1011.6
352.84 K, 19995 kPa, x1 = 0.1302	1012
352.85 K, 1004 kPa, x1 = 0.0369	983.9
352.85 K, 2037 kPa, x1 = 0.0369	984.4
352.85 K, 2962 kPa, x1 = 0.0369	984.8
352.85 K, 4014 kPa, x1 = 0.0369	985.2
352.85 K, 4994 kPa, x1 = 0.0369	985.6
352.85 K, 6034 kPa, x1 = 0.0369	986.1
352.85 K, 6999 kPa, x1 = 0.0369	986.5
352.85 K, 8019 kPa, x1 = 0.0369	987
352.85 K, 8987 kPa, x1 = 0.0369	987.3
352.85 K, 9992 kPa, x1 = 0.0369	987.8
352.85 K, 10987 kPa, x1 = 0.0369	988.2
352.85 K, 11994 kPa, x1 = 0.0369	988.6
352.85 K, 12978 kPa, x1 = 0.0369	989.1
352.85 K, 13987 kPa, x1 = 0.0369	989.4
352.85 K, 14998 kPa, x1 = 0.0369	989.9
352.85 K, 15956 kPa, x1 = 0.0369	990.2
352.85 K, 16987 kPa, x1 = 0.0369	990.7
352.85 K, 17991 kPa, x1 = 0.0369	991.1
352.85 K, 18986 kPa, x1 = 0.0369	991.5
352.85 K, 19988 kPa, x1 = 0.0369	991.9
352.88 K, 1037 kPa, x1 = 0.0893	998.6
352.88 K, 2010 kPa, x1 = 0.0893	999
352.88 K, 3005 kPa, x1 = 0.0893	999.5
352.88 K, 4010 kPa, x1 = 0.0893	999.9
352.88 K, 4999 kPa, x1 = 0.0893	1000.3
352.88 K, 5993 kPa, x1 = 0.0893	1000.7
352.88 K, 7000 kPa, x1 = 0.0893	1001.1
352.88 K, 7998 kPa, x1 = 0.0893	1001.6
352.88 K, 8982 kPa, x1 = 0.0893	1002
352.88 K, 9977 kPa, x1 = 0.0893	1002.4
352.88 K, 10995 kPa, x1 = 0.0893	1002.8
352.88 K, 11987 kPa, x1 = 0.0893	1003.3
352.88 K, 12999 kPa, x1 = 0.0893	1003.7
352.88 K, 13990 kPa, x1 = 0.0893	1004.1
352.88 K, 14969 kPa, x1 = 0.0893	1004.5
352.88 K, 15990 kPa, x1 = 0.0893	1004.9
352.88 K, 16991 kPa, x1 = 0.0893	1005.3
352.88 K, 18009 kPa, x1 = 0.0893	1005.8
352.88 K, 18994 kPa, x1 = 0.0893	1006.2
352.88 K, 20015 kPa, x1 = 0.0893	1006.6
362.71 K, 1012 kPa, x1 = 0.0369	977.3
362.71 K, 2054 kPa, x1 = 0.0369	977.8
362.71 K, 3004 kPa, x1 = 0.0369	978.2
362.71 K, 3981 kPa, x1 = 0.0369	978.6
362.71 K, 4997 kPa, x1 = 0.0369	979.1
362.71 K, 6006 kPa, x1 = 0.0369	979.5
362.71 K, 7005 kPa, x1 = 0.0369	979.9
362.71 K, 7962 kPa, x1 = 0.0369	980.3
362.71 K, 8999 kPa, x1 = 0.0369	980.8
362.71 K, 9999 kPa, x1 = 0.0369	981.2
362.71 K, 10997 kPa, x1 = 0.0369	981.6
362.71 K, 11979 kPa, x1 = 0.0369	982
362.71 K, 12988 kPa, x1 = 0.0369	982.5
362.71 K, 13990 kPa, x1 = 0.0369	982.9
362.71 K, 14982 kPa, x1 = 0.0369	983.4
362.71 K, 15982 kPa, x1 = 0.0369	983.8
362.71 K, 16992 kPa, x1 = 0.0369	984.2
362.71 K, 17958 kPa, x1 = 0.0369	984.6
362.71 K, 18984 kPa, x1 = 0.0369	985.1
362.71 K, 19984 kPa, x1 = 0.0369	985.5
362.72 K, 1043 kPa, x1 = 0.1302	995.9
362.72 K, 2117 kPa, x1 = 0.1302	996.4
362.72 K, 3008 kPa, x1 = 0.1302	996.8
362.72 K, 3995 kPa, x1 = 0.1302	997.3
362.72 K, 5002 kPa, x1 = 0.1302	997.8
362.72 K, 5994 kPa, x1 = 0.1302	998.2
362.72 K, 6994 kPa, x1 = 0.1302	998.6
362.72 K, 8003 kPa, x1 = 0.1302	999.1
362.72 K, 8988 kPa, x1 = 0.1302	999.6
362.72 K, 9991 kPa, x1 = 0.1302	1000
362.72 K, 11003 kPa, x1 = 0.1302	1000.4
362.72 K, 12036 kPa, x1 = 0.1302	1000.9
362.72 K, 13005 kPa, x1 = 0.1302	1001.3
362.72 K, 13983 kPa, x1 = 0.1302	1001.7
362.72 K, 14984 kPa, x1 = 0.1302	1002.2
362.72 K, 15981 kPa, x1 = 0.1302	1002.6
362.72 K, 16993 kPa, x1 = 0.1302	1003
362.72 K, 17988 kPa, x1 = 0.1302	1003.5
362.72 K, 18994 kPa, x1 = 0.1302	1003.9
362.72 K, 19995 kPa, x1 = 0.1302	1004.4
362.75 K, 993 kPa, x1 = 0.0893	990.9
362.75 K, 2025 kPa, x1 = 0.0893	991.3
362.75 K, 3013 kPa, x1 = 0.0893	991.8
362.75 K, 3995 kPa, x1 = 0.0893	992.2
362.75 K, 5018 kPa, x1 = 0.0893	992.7
362.75 K, 6003 kPa, x1 = 0.0893	993.1
362.75 K, 6988 kPa, x1 = 0.0893	993.6
362.75 K, 8002 kPa, x1 = 0.0893	994
362.75 K, 8996 kPa, x1 = 0.0893	994.4
362.75 K, 10040 kPa, x1 = 0.0893	994.9
362.75 K, 11000 kPa, x1 = 0.0893	995.3
362.75 K, 11988 kPa, x1 = 0.0893	995.7
362.75 K, 12992 kPa, x1 = 0.0893	996.1
362.75 K, 13990 kPa, x1 = 0.0893	996.6
362.75 K, 14990 kPa, x1 = 0.0893	997
362.75 K, 15993 kPa, x1 = 0.0893	997.5
362.75 K, 17004 kPa, x1 = 0.0893	997.9
362.75 K, 17984 kPa, x1 = 0.0893	998.3
362.75 K, 19022 kPa, x1 = 0.0893	998.7
362.75 K, 19984 kPa, x1 = 0.0893	999.2
